Data published in patent publication US20230331652A1, “TRANS-CYCLOOCTENES WITH HIGH REACTIVITY AND FAVORABLE PHYSIOCHEMICAL PROPERTIES” (University of Delaware, priority 2020, published 2023).
Entries after “also recorded” stand apart in the source; their conditions may differ.

Key:
HeLa cells = experiment: TAMRA-TCO comparative washout assay; type: cell-based; conditions: 5 μM, 30 min incubation
Excerpt: While TCO-derivatives offer rapid labeling kinetics, a consideration for labeling by fluorophore-tagged TCOs has been the background fluorescence due to non-covalent cellular binding that can be ameliorated only by extended washout times. More hydrophilic oxo- and dioxo-trans-cyclooctenes with backbone oxygens offer improvements, but are difficult to synthesize and, for dioxo-TCO, display reduced Diels-Alder kinetics. As shown in FIGS. 5A-5C, the fluorescent conjugates TAM RA-TCO, TAMRA-oxo-TCO and TAMRA-a-TCO were prepared and compared their cellular washout times to unconjugated TAMRA. Thus, HeLa cells were incubated for 30 min with TAMRA-dyes, and cells were initially washed three times with DPBS, and then cell media was exchanged after 10, 40 and 120 minutes. After each wash, cells were imaged live by fluorescence microscopy with illumination at 531 nm and fixed-intensity across all samples. Widefield images of the cells after 3 washes are shown in FIG. 5B; images after the earlier and later washings are shown in FIG. 8. Background fluorescence was quantified by dividing total fluorescence by the number of cells in each image (FIG. 5C).
HeLa cells were seeded at 5×10^3 cells per well in a poly-L-lysine (0.1 mg/mL) coated 48-well plate and allowed to grow for 48 hours in Dulbecco's modified eagle medium (DMEM, Life Technologies) supplemented with 5% FBS (Life Technologies), 1 mM L-glutamine, and 1% penicillin/streptomycin (Life Technologies). Cells were then incubated with media containing 5 μM of TAMRA-TCO, TAMRA-oxo-TCO, or TAMRA-a-TCO 12 (1 mM stock solutions in DMSO, diluted twice into media) for 30 mins at 37° C. All wells were washed three times with DPBS before adding fresh media. Cells were imaged after 2 DPBS washes and again after the 3rd DPBS wash, then incubated for additional time intervals: 10 minutes, 40 minutes, and 2 hour. At each time point, the media was removed from the designated wells and replaced with fresh media before imaging. Images were taken with an EVOS M7000 and all images were taken with the same laser power and gain. Fluorescence intensity was calculated for each sample in 3 replicates using ImageJ and the fluorescence data was normalized with the cell count of each image.

[1] = tested on: HeLa cells transfected with either HaloTag-H2B-GFP (nucleus) or HaloTag-GAP43-GFP (cytoplasm); experiment: TAMRA-a-TCO permeability assay (HaloTag intracellular labeling); type: cell-based; conditions: 1 μM, 30 min
Procedure: Here, cells are transfected with a GFP-HaloTag construct fused to a protein that controls subcellular localization, and then labeled by a tetrazine-HaloTag ligand 21. Upon subsequent reaction with fluorescent TAMRA-a-TCO, conjugation is expected only in those cells that express the HaloTag fusion protein, and co-localization of GFP and TAMRA fluorescence is expected.
HeLa Cell Culture and Transfection: HeLa cells were grown in Dulbecco's modified eagle medium (DMEM, Life Technologies) supplemented with 10% (v:v) heat inactivated fetal bovine serum (Life Technologies), 2 mM I-glutamine, and 100 units/mL penicillin/streptomycin (Life Technologies) in a humidified incubator at 37° C./5% CO2. Transfection was performed with cells at 70% confluency using Lipofectamine 3000 according to the manufacturer's instructions. HeLa cells were incubated for 5 hours at 37° C./5% CO2 before being exchanged with antibiotic free growth media for 16-20 hours prior to experimental procedures. […]

[2] = Storage stability of neat TCO; type: physicochemical; conditions: neat versus stored in solution
Excerpt: The diastereoselective additions of 2 with methyl α-lithioacetate or lithioacetonitrile provided a straightforward path to introduce handles for conjugation via amide bond or ether formation. The reaction of ketone 2 with lithium bis(trimethylsilyl)amide (LiHMDS)/methyl acetate produced ester 9 in 86% yield. Similarly, the combination of 2 with LiHMDS and acetonitrile produced nitrile 10 in 98% yield. Hydrolysis of 9 with trimethyltin hydroxide followed by DIC-mediated coupling with N-hydroxysuccinimide gave NHS ester 11 in 89% yield (FIG. 3B). Alternately, using LiOH gave 11 in 46% yield after DIC coupling. Through amide coupling, 11 gave the fluorescent TAMRA-conjugate 12 with favorable physiochemical properties, and 11 was also combined with hydrazine monohydrate to give hydrazide 13 with a potential handle for aldehyde conjugation. TCO 9 also was combined with LiAlH4 to provide diol 14 in 89% yield which was next used in a Williamson ether synthesis with NaH/propargyl bromide to give 96% yield of propargyl ether 15. […] Amine 16 was synthesized by LiAlH4 reduction of TCO nitrile 10 in 93% yield to introduce an acid reactive conjugation handle. […] In summary, ketone 2 can serve as a readily prepared, central intermediate for the diastereoselective preparation of a range of hydrophilic a-TCO conjugates.

cell permeability ([1]; live HeLa cells, after MeTz-Halo 21 (10 μM)) | Compound | reduction in background fluorescence relative to TAMRA-TCO (HeLa cells; after initial 3× wash) [%] | background fluorescence / washout after 2 hours (HeLa cells; media exchanges up to 2 hours) | colocalization of TAMRA signal with GFP ([1]; nuclear (H2B) and cytoplasmic (GAP43) HaloTag targets, confocal microscopy) | storage stability [2]
cell permeable | CN(C)c1ccc2c(-c3ccc(C(=O)NCCCCCNC(=O)C[C@]4(O)CC/C=C/CCC4)cc3C(=O)[O-])c3ccc(=[N+](C)C)cc-3oc2c1 [TAMRA-a-TCO, (R,E)-2-(6-(dimethylamino)-3-(dimethyliminio)-3H-xanthen-9-yl)-5-((5-(2-(1-hydroxycyclooct-4-en-1-yl)acetamido)pentyl)carbamoyl)benzoate] | 85 | essentially complete | subcellular colocalization of GFP and TAMRA fluorescence; also recorded: selective colocalization of the TAMRA signal with GFP was observed | –
– | C=CCC1(O)CC/C=C/CCC1 (stereo not drawn) [Compound 6, 5-eq-Allyl-5-ax-hydroxy-trans-cyclooctene] | – | – | – | polymerize if not stored in solution
– | C#CCOCC[C@]1(O)CC/C=C/CCC1 [Compound 15, 5-ax-Hydroxy-5-eq-(2-(prop-2-yn-1-yloxy)ethyl)-trans-cyclooctene] | – | – | – | more stable alternative
